Data from patent publication US4931288A, “Controlled release compositions (II)” (Lloyds Bank PLC, priority 1979, dated 1990).
One block for each compound: values may come before it.

Legend:
[1] = In vitro release of prostaglandin from dry polymer cylinders/pessaries/slices into phosphate buffer pH 7.4 via 3H activity; settings: for T1/2: dried polymer sample, pH 7.4, 37°; for t1/2: pH 7.4, 37° C.
Procedure: 19.08 g Prostin E2 at a 1% w/v solution in dephydrated ethanol is weighed. This is equivalent to 24.15 ml and therefore 0.2415 g PGE2.
25 of the pessaries (2.6 mm×10 mm×10 mm total weight 23.02 g) are then put in a polythene bag. The swelling solution is added, and the bag is sealed. The pessaries are then allowed to swell in the PGE2 solution for 20 hours by which time nearly all the solution has been absorbed by the polymer. The bag is cut open and the swollen pessaries are removed and weighed. Uptake of solution: 104.75 g. Average PGE2 content/pessary 9.3 mg.
The swollen pessaries are then vacuum dried at room temperature.
An identical pessary is prepared with the addition of 1 μCi ^3 H labelled PGE2 to study in vitro the release of PGE2 from the dry pessary into phosphate buffer pH 7.4 at 37° C. through measurement of ^3 H activity of the buffer solution which is replaced by fresh buffer at regular intervals.
A slice of the polymer 1 mm×11 mm×22 mm weighing 0.2678 g is added to the Ono solution in a polythene bag which is then sealed. After 6 hours swelling the bag is cut open and the swollen gel is weighed.
A slice of PEO 1.2×24×40 mm weighing 1.3083 g is added to the solution in a polythene bag which is then sealed.

[2] = Clinical induction of abortion; format: in vivo, human; settings: from 1 to 2.5 mg
[3] = In vitro release of prostaglandin from swollen (undried) polymer cylinders/pessaries into phosphate buffer pH 7.4 at 37° C.; format: physicochemical; settings: for t1/2: pH 7.4, 37°
Procedure: (B) The procedure described in (A) is followed but the swollen cylinders obtained after 24 hours treatment with the PGE2 solution are not dried but are tested directly for the release of PGE2 into pH 7.4 phosphate buffer at 37° C. In this instance a typical half life is of the order of 10 hours.
To study the release of PGE2 from a fully swollen pessary into phosphate buffer pH 7.4 at 37° the polymer is swollen in an ethanol/water solution of PGE2 of 0.87 g C2 H5 OH solution of 1% w/v Prostin E2 contains 11 mg PGE2 0.09 g C2 H5 OH containing 1 μCi of ^3 HPGE2 is added, then 3.56 g H2 O. A slice of polymer 3.1 mm×10 mm×30 mm weighing 1.13 g is added to the prepared PGE2 solution in 3.7/1, w/w, water/ethanol in a polythene bag. The bag is sealed and the polymer allowed to swell over 20 hours. The swollen polymer slice is then removed and the surface wiped dry with a tissue before weighing. Uptake of solution: 4.44 g i.e. almost all the PGE2 is contained in the swollen gel. The pessary is rinsed in distilled water and then transferred to phosphate buffer solution pH 7.4 at 37° C. The release of PGE2 into the surrounding solution is measured by frequent regular replacement of the buffer and counting the activity of ^3 H in the withdrawn solution. […] It is also possible to calculate the diffusion coefficient of PGE2 in the swollen gel D=0.83×10^-6 cm^2 sec^-1.

[4] = Clinical pilot study of hydrogel vaginal pessaries containing PGE2 10 mg (induction of labour); format: in vivo, human
Procedure: Hydrogel vaginal pessaries, formulated as above, each containing PGE2 10 mg, have been evaluated clinically in a pilot study.

SMILES: CS(=O)(=O)NC(=O)CCC/C=C\C[C@H]1C(=O)C[C@@H](O)[C@@H]1/C=C/[C@@H](O)COc1ccccc1 [N methanesulphonyl 15z, 11α, 13E 15α)-9-Oxo-11,15-dihydroxy-16-phenoxy-w-tetranorprosta-5,13 dien-1-amide]
half-life of the drug in the pessary ([1]; Example 15, dried slice 1.2×24×40 mm, buffer pH 7.4, 37° C.): 3.7 h

SMILES: CCCCC(C)(C)[C@@H](O)/C=C/[C@H]1[C@H](O)CC(=O)[C@@H]1CCCC/C=C/C(=O)O (relative stereo) [16:16-dimethyl-trans-Δ^2 -PGE1]
induction of abortion [2]: Induction of abortion has been effected

SMILES: CCCCC(C)(C)C(O)C=CC1C(O)CC(=O)C1CC=CCCCC(=O)Oc1ccc(C=NNC(N)=O)cc1 (stereo not drawn) [PG ester, 16,16 dimethyl prostaglandin E2 benzaldehyde semi-carbazone]
duration of the release pattern ([1]; Example 14, 0.25 mm slice): 2 weeks
release rate ([1]; Example 14, 0.25 mm slice, day 2): 50 µg/h
release rate ([1]; Example 14, 0.25 mm slice, overnight): 13 µg/h
character of the release ([1]; Example 14, thin (0.25 mm) sample): essentially that of a fully swollen device containing a dispersion rather than a solution of a low solubility prostaglandin analogue

Continued, in another order:

T1/2 ([1]; Example 13, thickness 0.25 mm): 0.5 h
T1/2 ([1]; Example 13, thickness 0.65 mm): 3.0 h
T1/2 ([1]; Example 13, thickness 1.00 mm): 6.3 h
half life of Ono in this sample ([1]; Example 13, dried slice 1 mm×11 mm×22 mm, phosphate buffer pH 7.4, 37°): 6.3 h
SMILES: CCCCC(C)(C)[C@H](O)/C=C/[C@H]1[C@H](O)CC(=O)[C@@H]1C/C=C\CCCC(=O)OC [Ono, 16,16-dimethyl PGE2, methyl ester]
dependence of half life t1/2 on thickness ([1]; Example 13, 3 different thicknesses): directly proportional to the square of the thickness

half life of release ([1]; Example 11, dry cylinders, PEG 6,000/MDI/TMP (0.75 molar) polymer, pH 7.4 phosphate buffer, typical): ~95 h
SMILES: CCCCC(C)(C)[C@H](O)/C=C/[C@H]1[C@H](O)CC(=O)[C@@H]1CCCC/C=C/C(=O)OC [16,16-dimethyl-trans Δ^2 -PGE1 methyl ester]

half life for release ([3]; Example 10(B), swollen cylinders not dried, pH 7.4 phosphate buffer, 37° C., typical): ~10 h
half life t1/2 of PGE2 in the swollen pessary ([3]; Example 12, fully swollen pessary 3.1 mm×10 mm×30 mm, phosphate buffer pH 7.4, 37°): 2.7 h
t1/2 ([3]; Example 12, fully swollen pessary, thickness 1.2 mm): 0.7 h
t1/2 ([3]; Example 12, fully swollen pessary, thickness 2.4 mm): 2.0 h
t1/2 ([3]; Example 12, fully swollen pessary, thickness 3.1 mm): 2.7 h
diffusion coefficient of PGE2 in the swollen gel, D ([3]; Example 12, fully swollen pessary, calculated from release measurements): 0.83×10^-6 cm^2 sec^-1
half life for release of the drug ([1]; Example 10(A), dry cylinders, PEG 6,000/MDI/TMP (0.75 molar) polymer, pH 7.4 phosphate buffer, 37° C., typical): ~20 h
t1/2 ([1]; Example 12, dry pessary, thickness 1.2 mm): 1.4 h
t1/2 ([1]; Example 12, dry pessary, thickness 1.5 mm): 2.4 h
t1/2 ([1]; Example 12, dry pessary, thickness 1.7 mm): 2.7 h
t1/2 ([1]; Example 12, dry pessary, thickness 2.6 mm): 7.0 h
t1/2 ([1]; Example 12, dry pessary, thickness 2.9 mm): 8.0 h
t1/2 ([1]; Example 12, dry pessary, thickness 3.4 mm): 12.0 h
half life t1/2 of the PGE2 in this polymer ([1]; Example 12, dry pessary, phosphate buffer pH 7.4, 37° C.): 7 h
SMILES: CCCCC[C@H](O)/C=C/[C@H]1[C@H](O)CC(=O)[C@@H]1C/C=C\CCCC(=O)O [PGE2]
half life in the fully swollen device relative to the initially dry device ([3]; Example 12): approximately half of the half life in the initially dry device
constancy of the rate of release ([3]; Example 12, fully swollen devices): do not provide the desirable reasonably constant period of the rate of release
labour and delivery outcome ([4]; patients with average or favourable induction prospects, PGE2 treatment alone, without orthodox induction): became established in labour and made good progress, with successful vaginal delivery
cervical ripening ([4]; unfavourable patients): progressive
establishment in labour ([4]; unfavourable patients): all were established in labour
latent phase of labour ([4]; unfavourable patients): expectedly longer
agreement of clinical experience with in vitro release ([4]; vaginal pessaries, PGE2 10 mg): accorded well with in vitro release studies
course of uterine activity ([4]; vaginal pessaries, PGE2 10 mg): maintained or gradually increased
time to appreciable uterine activity, not requiring analgesia ([4]; vaginal pessaries, PGE2 10 mg): 1 to 2 h
ripening of the cervix ([4]; vaginal pessaries, PGE2 10 mg, all cases): significant `ripening` of the cervix in all cases
